“Also recorded” adds a separate entry of the source.
What was measured:
[1] = system: P-gp overexpressing prostate cancer cell line, DU145TXR; assay: MTT cell viability assay, resensitization to paclitaxel; type: cell-based, human; details: for Resensitization of DU145TXR to paclitaxel / MDR reversal (in words): 3 to 10 μM inhibitor
Source text: The Group 1 ChemGen/docking routine produced variants of P-gp inhibitor 29 resensitize a multidrug resistant, P-gp overexpressing prostate cancer cell line to paclitaxel. The mitochondrial reduction potential of cells is often used as an indicator for cell viability using MTT assays^4. Using these assays it was observed that the five Group 1 derivatives of 29 predicted through the ChemGen/docking routine and synthesized here, 216, 227, 231, 541 and 551, re-sensitized the P-gp overexpressing prostate cancer cell line, DU145TXR^33, to the chemotherapeutic, paclitaxel (FIG. 12, showing results of assays at concentrations of 3 μM, 5 μM, 7 μM, and 10 μM).
Cytotoxicity of the chemotherapeutic, paclitaxel (PTX) to P-gp overexpressing prostate cancer cells, DU145TXR, was determined in the absence and presence of the ChemGen designed 29-variants, 216, 227, 231, 541 and 551. For each experimental compound IC50 values of PTX alone or in the presence of inhibitors, fold improvement of PTX sensitivity in the presence of inhibitor, and fold improvement of PTX sensitivity by variants compared to parental compound 29 are given.
Effects of Group 2 variants on the paclitaxel sensitivity of P-glycoprotein overexpressing prostate cancer cells, DU145TXR. MTT assays were again used to assess the efficacy of the new structural 29-variants on sensitizing the chemotherapy-resistant prostate cancer cell line, DU145TXR, to paclitaxel, at concentrations of 3 μM, 5 μM, 7 μM, and 10 μM as shown in FIG. 15 and Table 4.
MTT cell viability assay. Cells were trypsinized from monolayers and seeded with 3000 cells in 150 μL of complete medium in a 96 well plate. After 24 hours, cells were treated for 48 hours with paclitaxel (Acros Organics, NJ) and/or P-gp inhibitory compounds dissolved in DMSO, or DMSO controls. All additions were diluted into complete medium. After 48 hours of treatment, MTT assays were performed as described^41 using 5 mg/mL of MTT (Acros Organics, NJ) solution prepared in PBS (137 mM NaCl, 2.7 mM KCl, 10 mM Na2HPO4, 1.8 mM KH2PO4, pH 7.4). After 4 hours of incubation with MTT, the media was removed and the formazan crystals were dissolved in 100 μL of DMSO. The absorbance at 570 nm was then measured using a BioTek Cytation 5 imaging multi-mode reader (Bio-Tek, Winooski, Vt.). Percent viability was calculated using DMSO treated cells as representative for 100% viability, according to Equation 1. Background absorbance was determined using MTT and complete medium without cells and subtracted from all the test values. Equation 1:
The results were plotted as the mean with standard deviation (SD) of eight replicates per concentration from at least two independent experiments with n=8. The graphical representations and IC50 values were determined using four parameter variable slope non-linear regression, using the following equation: Y=bottom+(top-bottom)/(1+10^((log IC50−X)*Hill Slope) (GraphPad Prism™, La Jolla Calif., USA, Version 6.05). The reported “fold sensitization” was calculated as follows, per Equation 2: […]

[2] = molecular target: T1, cysteineless mouse P-glycoprotein (Mus musculus, UniProt P21447, C1070A/C1121A/C1223A/C133A/C427A/C638A/C669A/C713A/C952A); assay: SL-ATP (spin-labeled ATP analog) binding titration by ESR; details: for Maximum ATP binding: in the presence of the compound, ± standard deviation
T1 construct: made in house; host or cells: Pichia pastoris
T1 sequence (P21447 whole entry C133A/C427A/C638A/C669A/C713A/C952A/C1070A/C1121A/C1223A): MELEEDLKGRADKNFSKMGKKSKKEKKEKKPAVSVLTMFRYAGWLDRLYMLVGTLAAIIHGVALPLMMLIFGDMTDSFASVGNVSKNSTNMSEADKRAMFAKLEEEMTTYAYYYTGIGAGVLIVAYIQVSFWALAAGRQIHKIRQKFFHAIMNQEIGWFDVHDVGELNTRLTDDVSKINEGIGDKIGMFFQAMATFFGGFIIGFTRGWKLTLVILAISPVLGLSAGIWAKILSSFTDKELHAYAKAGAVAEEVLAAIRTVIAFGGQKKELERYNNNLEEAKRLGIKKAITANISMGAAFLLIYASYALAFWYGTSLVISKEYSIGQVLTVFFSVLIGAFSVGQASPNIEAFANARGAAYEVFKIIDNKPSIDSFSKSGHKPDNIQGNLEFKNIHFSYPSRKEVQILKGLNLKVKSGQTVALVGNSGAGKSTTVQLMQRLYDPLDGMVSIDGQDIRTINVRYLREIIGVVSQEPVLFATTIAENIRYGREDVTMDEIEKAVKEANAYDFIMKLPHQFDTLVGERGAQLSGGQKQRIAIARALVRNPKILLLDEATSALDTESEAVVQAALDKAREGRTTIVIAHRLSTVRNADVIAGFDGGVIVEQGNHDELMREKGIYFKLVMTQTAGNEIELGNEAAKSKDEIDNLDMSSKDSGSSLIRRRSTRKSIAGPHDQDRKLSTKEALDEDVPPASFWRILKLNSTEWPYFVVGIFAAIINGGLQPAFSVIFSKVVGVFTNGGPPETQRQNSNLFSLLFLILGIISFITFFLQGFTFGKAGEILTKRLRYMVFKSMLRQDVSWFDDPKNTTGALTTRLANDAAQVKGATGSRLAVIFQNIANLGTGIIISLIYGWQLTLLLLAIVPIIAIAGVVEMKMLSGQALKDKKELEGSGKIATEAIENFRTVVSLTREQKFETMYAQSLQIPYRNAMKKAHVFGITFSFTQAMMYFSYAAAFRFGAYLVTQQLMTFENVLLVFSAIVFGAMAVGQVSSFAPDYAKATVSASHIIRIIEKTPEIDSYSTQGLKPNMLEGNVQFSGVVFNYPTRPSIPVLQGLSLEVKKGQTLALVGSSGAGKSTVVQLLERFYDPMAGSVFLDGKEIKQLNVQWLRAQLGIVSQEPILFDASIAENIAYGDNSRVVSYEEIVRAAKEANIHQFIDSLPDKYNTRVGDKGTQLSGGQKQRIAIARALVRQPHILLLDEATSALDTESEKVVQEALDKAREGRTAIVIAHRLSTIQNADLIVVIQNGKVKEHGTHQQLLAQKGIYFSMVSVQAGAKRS
Description: Effects of 29 variants on binding of an ATP-analog to purified P-glycoprotein. ATP binding in the presence of the 29 variants was assessed in titration assays using a spin-labeled analog of ATP, 2′,3′-SL-ATP (2′,3′-(2,2,5,5,-tetramethyl-3-pyrroline-1-oxyl-3-carboxylic acid ester) ATP; (2′,3′ indicates a rapid equilibrium of the ester bond between the C2′ and C3′ of the ribose moiety))^48-50, and electron spin resonance spectroscopy as described in^26. Due to the lower stability of the human P-glycoprotein in the extended times needed for these experiments, the cysteineless mouse protein was used here. The goal was to assess whether binding of the 29 variants to P-gp affected nucleotide binding to the protein.
ESR Measurements. ESR measurements were as described in^26. The amount of protein-bound spin-labeled (SL) adenine nucleotide was determined as the difference between the known total concentration of SL-ATP (2′,3′-(2,2,5,5,-tetramethyl-3-pyrroline-1-oxyl-3-carboxylic acid ester) —ATP^48) added and the free spin-labeled nucleotide (SL-ANP) observed in the experiment. Hyperbolic curve fitting of the results was performed using GraphPad Prism 7 to determine maximum binding and apparent affinity for the spin-labeled nucleotide. The equation used for the fitting the curves was […], where P1 corresponds to the maximum binding of SL-ANP (moles of SL-ANP bound per mole P-gp), and P2 equals the apparent dissociation constant for SL-ANP. To quantify the amount of free SL-ANP, standard curves were established where the signal amplitude of the high field signal of the ESR spectra of free SL-ANP in the absence of protein was correlated to the concentration of SL-ANP added. All ESR measurements were performed using a Bruker EMX 6/1 ESR spectrophotometer operating in X-band mode and equipped with a high sensitivity cavity. Spectra were acquired at a microwave frequency of 9.33 GHz, microwave power of 12.63 mW, 100 kHz modulation frequency and a resolution of 1024 points. The centerfield of the scan was at 3325 G and an area of 100 G was scanned. The peak to peak modulation amplitude was 1G and the time constant was set to 10.240 ms. The conversion time was 163.84 ms, resulting in a total time sweep of 167.772 s. The signal gain was adjusted for the SL-ATP concentrations in the different experiments.

SMILES	Resensitization of DU145TXR to paclitaxel / MDR reversal (in words) ([1]; listed as 541)	Effect on SL-ANP binding [2]	Maximum ATP binding [2]	Fold vs PTX (fold increased sensitivity) ([1]; 3 μM inhibitor, vs paclitaxel alone)	Resensitization of DU145TXR to paclitaxel / MDR reversal (in words) ([1]; listed as 551)
Cc1cc(C)c(-c2cc(NC(=O)CSc3nnc4c(n3)[nH]c3ccccc34)n(-c3ccccc3)n2)cc1C [29-541, 2-((5H-[1,2,4]triazino[5,6-b]indol-3-yl)thio)-N-(1-phenyl-3-(2,4,5-trimethylphenyl)-1H-pyrazol-5-yl)acetamide]	re-sensitized; also recorded: more effective than 29 at all concentrations tested	no	1.8 ± 0.1 mol SL-ANP bound/mol P-gp		
Cc1cc(C)c(-c2cc(NC(=O)CSc3cccc(NC(=O)c4cncc(Br)c4)c3)n(-c3ccccc3)n2)cc1C [29-551, 5-bromo-N-(3-((2-oxo-2-((1-phenyl-3-(2,4,5-trimethylphenyl)-1H-pyrazol-5-yl)amino)ethyl)thio)phenyl)nicotinamide]		no	1.7 ± 0.1 mol SL-ANP bound/mol P-gp	38 fold	re-sensitized; also recorded: more effective than 29 at all concentrations tested

Source: patent publication US20210134398A1, “Combinatorial Chemistry Computational System and Enhanced Selection Method” (Southern Methodist University, priority 2019, published 2021)
